One test addresses T1, LRRK2 WT (Homo sapiens, UniProt Q5S007).
T1 construct: purchased Life Technologies PR8604B
Nature of the test: LRRK2 Kinase Activity Assay (LanthaScreen TR-FRET), wild type. Format: biochemical. Conditions: recombinant wild type LRRK2, 25 μM ATP, 400 nM LRRKtide, 60 min; class symbols. In outline:
(§1)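 IC50 fitted to the compound-dependent loss of TR-FRET signal. Each kinase form, wild type or G2019S, phosphorylated the fluorescein-tagged ERM-derived LRRKtide in the presence of ATP and compound dilutions over 60 min at room temperature; quench contained 10 mM EDTA and 2 nM anti-pERM antibody (final).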
(TR-FRET usually uses a lanthanide donor and a delayed reading to cut background.)

A further test deals with T2, LRRK2 G2019S (Homo sapiens, UniProt Q5S007, G2019S).
T2 construct: purchased Life Technologies PV4881
T2 sequence (Q5S007 whole entry G2019S): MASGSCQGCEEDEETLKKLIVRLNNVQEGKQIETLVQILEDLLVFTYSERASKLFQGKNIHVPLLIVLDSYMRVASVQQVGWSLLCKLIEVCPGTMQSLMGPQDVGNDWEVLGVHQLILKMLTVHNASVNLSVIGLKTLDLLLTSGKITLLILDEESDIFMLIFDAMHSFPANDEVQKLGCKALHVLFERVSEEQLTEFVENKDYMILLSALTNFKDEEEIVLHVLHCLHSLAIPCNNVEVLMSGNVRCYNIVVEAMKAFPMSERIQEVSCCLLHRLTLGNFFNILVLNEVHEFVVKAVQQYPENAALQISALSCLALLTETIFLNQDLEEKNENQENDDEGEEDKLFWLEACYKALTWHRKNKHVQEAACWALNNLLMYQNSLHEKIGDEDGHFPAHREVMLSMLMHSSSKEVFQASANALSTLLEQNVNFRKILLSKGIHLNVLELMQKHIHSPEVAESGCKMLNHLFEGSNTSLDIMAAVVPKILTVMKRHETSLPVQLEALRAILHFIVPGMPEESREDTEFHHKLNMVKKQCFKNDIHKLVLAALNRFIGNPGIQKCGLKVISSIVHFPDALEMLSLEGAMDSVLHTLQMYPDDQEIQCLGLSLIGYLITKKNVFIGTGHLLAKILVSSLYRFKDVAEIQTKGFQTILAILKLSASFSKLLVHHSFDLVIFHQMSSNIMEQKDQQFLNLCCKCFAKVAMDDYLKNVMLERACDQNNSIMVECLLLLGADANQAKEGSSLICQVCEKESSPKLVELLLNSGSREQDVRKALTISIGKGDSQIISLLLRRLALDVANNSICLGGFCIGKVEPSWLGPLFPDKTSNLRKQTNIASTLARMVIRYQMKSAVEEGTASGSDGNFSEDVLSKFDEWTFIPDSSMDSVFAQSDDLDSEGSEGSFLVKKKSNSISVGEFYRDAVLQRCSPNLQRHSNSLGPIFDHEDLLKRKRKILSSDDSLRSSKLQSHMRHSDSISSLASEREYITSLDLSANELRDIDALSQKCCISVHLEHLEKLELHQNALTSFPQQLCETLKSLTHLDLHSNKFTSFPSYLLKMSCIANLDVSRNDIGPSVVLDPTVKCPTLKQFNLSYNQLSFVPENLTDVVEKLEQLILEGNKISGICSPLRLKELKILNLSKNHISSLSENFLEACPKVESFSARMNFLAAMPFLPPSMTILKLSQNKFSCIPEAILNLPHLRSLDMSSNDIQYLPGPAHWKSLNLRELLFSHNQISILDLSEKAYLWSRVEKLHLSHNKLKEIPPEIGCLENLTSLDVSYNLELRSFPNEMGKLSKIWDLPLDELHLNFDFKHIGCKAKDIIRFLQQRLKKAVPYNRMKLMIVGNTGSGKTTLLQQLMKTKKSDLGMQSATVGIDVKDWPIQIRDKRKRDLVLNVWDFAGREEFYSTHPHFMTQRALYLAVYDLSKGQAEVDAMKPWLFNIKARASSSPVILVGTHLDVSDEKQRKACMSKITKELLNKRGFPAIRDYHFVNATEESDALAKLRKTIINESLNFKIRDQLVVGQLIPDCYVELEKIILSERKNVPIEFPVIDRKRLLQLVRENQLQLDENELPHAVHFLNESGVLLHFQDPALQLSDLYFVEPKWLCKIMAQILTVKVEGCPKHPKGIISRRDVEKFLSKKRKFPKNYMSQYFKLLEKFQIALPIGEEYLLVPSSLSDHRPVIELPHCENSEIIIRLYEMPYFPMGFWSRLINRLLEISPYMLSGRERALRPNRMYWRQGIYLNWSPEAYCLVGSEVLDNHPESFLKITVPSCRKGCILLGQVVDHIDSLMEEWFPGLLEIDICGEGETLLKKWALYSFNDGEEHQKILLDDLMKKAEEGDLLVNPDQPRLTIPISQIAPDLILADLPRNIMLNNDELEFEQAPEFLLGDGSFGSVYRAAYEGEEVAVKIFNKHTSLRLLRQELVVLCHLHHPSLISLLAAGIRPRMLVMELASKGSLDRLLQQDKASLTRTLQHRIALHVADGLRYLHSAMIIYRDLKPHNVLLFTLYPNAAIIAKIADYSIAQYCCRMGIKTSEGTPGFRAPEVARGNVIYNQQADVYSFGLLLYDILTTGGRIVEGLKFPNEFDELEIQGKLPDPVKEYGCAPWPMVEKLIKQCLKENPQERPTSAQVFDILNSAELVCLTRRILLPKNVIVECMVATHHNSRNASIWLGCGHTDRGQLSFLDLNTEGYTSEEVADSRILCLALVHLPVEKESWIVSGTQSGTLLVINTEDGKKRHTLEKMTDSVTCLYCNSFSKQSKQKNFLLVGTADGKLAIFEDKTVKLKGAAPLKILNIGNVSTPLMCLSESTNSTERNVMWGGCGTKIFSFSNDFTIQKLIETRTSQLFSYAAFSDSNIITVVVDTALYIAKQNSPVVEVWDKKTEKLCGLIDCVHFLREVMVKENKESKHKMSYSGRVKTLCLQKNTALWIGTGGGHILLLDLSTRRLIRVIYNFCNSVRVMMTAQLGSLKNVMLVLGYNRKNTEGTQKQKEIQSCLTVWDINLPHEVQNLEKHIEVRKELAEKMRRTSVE
The test is described as follows: LRRK2 Kinase Activity Assay (LanthaScreen TR-FRET), G2019S. Format: biochemical. Conditions: recombinant G2019S-LRRK2, 25 μM ATP, 400 nM LRRKtide, 60 min; class symbols. In outline:
as §1

pIC50: −log10 of the molar value.

T1 sequence (Q5S007 whole entry): as the sequence (Q5S007 whole entry G2019S) above, with S2019G counted along it

For `COc1c(C#N)ccc2c1CC[C@@H]2Nc1ccc2[nH]nc(-c3cnco3)c2c1` (single isomer, unassigned) [Example 113, enantiomer 1, 4-Methoxy-1-((3-(oxazol-5-yl)-1H-indazol-5-yl)amino)-2,3-dihydro-1H-indene-5-carbonitrile], the negative-log IC50 (pIC50) on LRRK2 WT and on LRRK2 G2019S was more than 7.00 throughout.

As for `COc1cc2c(cc1C#N)CCC[C@@H]2Nc1ccc2[nH]nc(-c3cnoc3)c2c1` (single isomer, unassigned) [Example 114, enantiomer 1, 5-((3-(Isoxazol-4-yl)-1H-indazol-5-yl)amino)-3-methoxy-5,6,7,8-tetrahydronaphthalene-2-carbonitrile], the pIC50 at LRRK2 WT and at LRRK2 G2019S was 6.00 to 7.00 throughout.

Turning to `COc1cc2c(cc1C#N)CCC[C@@H]2Nc1ccc2[nH]nc(-c3cnoc3)c2c1` (single isomer, unassigned) [Example 114, enantiomer 2, 5-((3-(Isoxazol-4-yl)-1H-indazol-5-yl)amino)-3-methoxy-5,6,7,8-tetrahydronaphthalene-2-carbonitrile], the pIC50 on LRRK2 WT and at LRRK2 G2019S was more than 7.00 in each case.

On to `CC1(C)CC[C@H](Nc2ccc3[nH]nc(-c4cnco4)c3c2)c2ccc(C#N)cc21` (single isomer, unassigned) [Example 115, enantiomer 1, 8,8-Dimethyl-5-((3-(oxazol-5-yl)-1H-indazol-5-yl)amino)-5,6,7,8-tetrahydronaphthalene-2-carbonitrile], for which the pIC50 (commonly the IC50 on a negative log10 scale, so that one unit is a factor of ten) on LRRK2 WT was 6.00 to 7.00; at LRRK2 G2019S it was more than 7.00.

With `CC1(C)CC[C@H](Nc2ccc3[nH]nc(-c4cnco4)c3c2)c2ccc(C#N)cc21` (single isomer, unassigned) [Example 115, enantiomer 2, 8,8-Dimethyl-5-((3-(oxazol-5-yl)-1H-indazol-5-yl)amino)-5,6,7,8-tetrahydronaphthalene-2-carbonitrile], the pIC50 was 6.00 to 7.00 at LRRK2 WT and more than 7.00 at LRRK2 G2019S.

As for `CCc1cc(-c2n[nH]c3ccc(N[C@H]4CCCc5cc(C#N)ccc54)cc23)ccn1` (single isomer, unassigned) [Example 116, enantiomer 1, 5-((3-(2-Ethylpyridin-4-yl)-1H-indazol-5-yl)amino)-5,6,7,8-tetrahydronaphthalene-2-carbonitrile], the negative logarithm of the IC50 (pIC50) on LRRK2 WT and on LRRK2 G2019S was more than 7.00 throughout.

In the case of `Cc1c(C#N)ccc2c1CC[C@H]2Nc1ccc2[nH]nc(-c3cnoc3)c2c1` (single isomer, unassigned) [Example 118, enantiomer 1, 1-((3-(Isoxazol-4-yl)-1H-indazol-5-yl)amino)-4-methyl-2,3-dihydro-1H-indene-5-carbonitrile], the pIC50 at LRRK2 WT and on LRRK2 G2019S was more than 7.00 throughout.

With `N#Cc1ccc2c(c1)CCC[C@H]2Nc1ccc2[nH]nc(-c3cnco3)c2c1` (single isomer, unassigned) [Example 119, enantiomer 1, 5-((3-(Oxazol-5-yl)-1H-indazol-5-yl)amino)-5,6,7,8-tetrahydronaphthalene-2-carbonitrile], the pIC50 was 6.00 to 7.00 at LRRK2 WT and more than 7.00 on LRRK2 G2019S.

In the case of `N#Cc1cnc2c(c1)CCC[C@H]2Nc1ccc2[nH]nc(-c3cnco3)c2c1` (single isomer, unassigned) [Example 120, enantiomer 1, 8-((3-(Oxazol-5-yl)-1H-indazol-5-yl)amino)-5,6,7,8-tetrahydroquinoline-3-carbonitrile], the negative-log IC50 (pIC50) on LRRK2 WT and at LRRK2 G2019S was more than 7.00 in each case.

On to `CCc1cc(-c2n[nH]c3ccc(O[C@@H]4CCCc5cc(C#N)cnc54)cc23)ccn1` (single isomer, unassigned) [Example 121, enantiomer 1, 8-((3-(2-Ethylpyridin-4-yl)-1H-indazol-5-yl)oxy)-5,6,7,8-tetrahydroquinoline-3-carbonitrile], for which the negative-log IC50 (pIC50) on LRRK2 WT and at LRRK2 G2019S was more than 7.00 in each case.

Turning to `N#Cc1cc2c(cn1)[C@H](Oc1ccc3[nH]nc(-c4cnco4)c3c1)CCC2` (single isomer, unassigned) [Example 122, enantiomer 1, 8-((3-(Oxazol-5-yl)-1H-indazol-5-yl)oxy)-5,6,7,8-tetrahydroisoquinoline-3-carbonitrile], the pIC50 on LRRK2 WT is 6.00 to 7.00; on LRRK2 G2019S, more than 7.00.

`COc1cc(-c2n[nH]c3ccc(O[C@H]4CCCc5cc(C#N)cnc54)cc23)ccn1` (single isomer, unassigned) [Example 123, enantiomer 1, 8-((3-(2-Methoxypyridin-4-yl)-1H-indazol-5-yl)oxy)-5,6,7,8-tetrahydroquinoline-3-carbonitrile]: the pIC50 at LRRK2 WT and on LRRK2 G2019S was more than 7.00 throughout.

For `N#Cc1ccc2c(c1)CC[C@@H]2Oc1ccc2[nH]nc(C3CC3)c2c1` (single isomer, unassigned) [Example 124, enantiomer 1, 1-((3-Cyclopropyl-1H-indazol-5-yl)oxy)-2,3-dihydro-1H-indene-5-carbonitrile], the pIC50 is 6.00 to 7.00 at LRRK2 WT and more than 7.00 on LRRK2 G2019S.

As for `N#Cc1cnc2c(c1)CCC[C@@H]2Nc1ccc2[nH]nc(Br)c2c1` (single isomer, unassigned) [Example 125, enantiomer 1, 8-((3-Bromo-1H-indazol-5-yl)amino)-5,6,7,8-tetrahydroquinoline-3-carbonitrile], the negative-log IC50 (pIC50) at LRRK2 WT is 6.00 to 7.00; at LRRK2 G2019S it was more than 7.00.

Consider `N#Cc1cnc2c(c1)CCC[C@@H]2Nc1ccc2[nH]nc(Br)c2c1` (single isomer, unassigned) [Example 125, enantiomer 2, 8-((3-Bromo-1H-indazol-5-yl)amino)-5,6,7,8-tetrahydroquinoline-3-carbonitrile], for which the figures for the pIC50 on LRRK2 WT and on LRRK2 G2019S were 5.00 to 6.00 and 6.00 to 7.00, respectively.

With `N#Cc1cnc2c(c1)CCC[C@@H]2Nc1ccc2[nH]nc(Cl)c2c1` (single isomer, unassigned) [Example 126, enantiomer 1, 8-((3-Chloro-1H-indazol-5-yl)amino)-5,6,7,8-tetrahydroquinoline-3-carbonitrile], the negative-log IC50 (pIC50) on LRRK2 WT and at LRRK2 G2019S was 5.00 to 6.00 each time.

As to `N#Cc1cnc2c(c1)CCC[C@@H]2Nc1ccc2[nH]nc(Cl)c2c1` (single isomer, unassigned) [Example 126, enantiomer 2, 8-((3-Chloro-1H-indazol-5-yl)amino)-5,6,7,8-tetrahydroquinoline-3-carbonitrile], the pIC50 was 6.00 to 7.00 at LRRK2 WT and more than 7.00 on LRRK2 G2019S.

`Cc1c(C#N)ccc2c1CC[C@@H]2Nc1ccc2[nH]nc(I)c2c1` (single isomer, unassigned) [Example 127, enantiomer 1, 1-((3-Iodo-1H-indazol-5-yl)amino)-4-methyl-2,3-dihydro-1H-indene-5-carbonitrile]: the negative-log IC50 (pIC50) at LRRK2 WT and on LRRK2 G2019S was 6.00 to 7.00 throughout.

Turning to `N#Cc1ccc2c(c1)CC[C@H]2Nc1ccc2[nH]nc(I)c2c1` (single isomer, unassigned) [Example 128, enantiomer 1, 1-((3-Iodo-1H-indazol-5-yl)amino)-2,3-dihydro-1H-indene-5-carbonitrile], the pIC50 at LRRK2 WT and at LRRK2 G2019S was 6.00 to 7.00 in each case.

Take `N#Cc1ccc2c(c1)CC[C@H]2Nc1ccc2[nH]nc(I)c2c1` (single isomer, unassigned) [Example 128, enantiomer 2, 1-((3-Iodo-1H-indazol-5-yl)amino)-2,3-dihydro-1H-indene-5-carbonitrile]: the negative logarithm of the IC50 (pIC50) on LRRK2 WT was 6.00 to 7.00; at LRRK2 G2019S it was more than 7.00.

In the case of `Cc1n[nH]c2ccc(N[C@H]3CCc4c(C#N)cccc43)cc12` (single isomer, unassigned) [Example 129, enantiomer 1, 1-((3-Methyl-1H-indazol-5-yl)amino)-2,3-dihydro-1H-indene-4-carbonitrile], the pIC50 at LRRK2 WT was 5.00 to 6.00; on LRRK2 G2019S, 6.00 to 7.00.

As to `Cc1n[nH]c2ccc(N[C@H]3CCc4ccc(C#N)cc43)cc12` (single isomer, unassigned) [Example 130, enantiomer 1, 3-((3-Methyl-1H-indazol-5-yl)amino)-2,3-dihydro-1H-indene-5-carbonitrile], the values for the negative-log IC50 (pIC50) on LRRK2 WT and at LRRK2 G2019S were 5.00 to 6.00 and 6.00 to 7.00, respectively.

As to `Cc1n[nH]c2ccc(N[C@H]3CCc4ccc(C#N)cc43)cc12` (single isomer, unassigned) [Example 130, enantiomer 2, 3-((3-Methyl-1H-indazol-5-yl)amino)-2,3-dihydro-1H-indene-5-carbonitrile], the pIC50 at LRRK2 WT was 6.00 to 7.00; on LRRK2 G2019S, more than 7.00.

On to `Cc1cc(C#N)cc2c1[C@@H](Nc1ccc3[nH]nc(-c4cnco4)c3c1)CC2` (single isomer, unassigned) [Example 131, enantiomer 1, 7-Methyl-1-((3-(oxazol-5-yl)-1H-indazol-5-yl)amino)-2,3-dihydro-1H-indene-5-carbonitrile], for which the pIC50 on LRRK2 WT and on LRRK2 G2019S was more than 7.00 each time.

Take `N#Cc1cc(F)c2c(c1)CC[C@H]2Nc1ccc2[nH]nc(-c3cnco3)c2c1` (single isomer, unassigned) [Example 132, enantiomer 1, 5-((5-Cyano-7-fluoro-2,3-dihydro-1H-inden-1-yl)amino)-3-(oxazol-5-yl)-1H-indazol-2-ium]: the pIC50 on LRRK2 WT and at LRRK2 G2019S was more than 7.00 each time.

With `N#Cc1ccc2c(n1)CCC[C@H]2Oc1ccc2[nH]nc(C3CC3)c2c1` (single isomer, unassigned) [Example 133, enantiomer 1, 5-((3-Cyclopropyl-1H-indazol-5-yl)oxy)-5,6,7,8-tetrahydroquinoline-2-carbonitrile], the negative logarithm of the IC50 (pIC50) is 5.00 to 6.00 on LRRK2 WT and 6.00 to 7.00 at LRRK2 G2019S.

Consider `N#Cc1ccc2c(n1)CCC[C@H]2Oc1ccc2[nH]nc(C3CC3)c2c1` (single isomer, unassigned) [Example 133, enantiomer 2, 5-((3-Cyclopropyl-1H-indazol-5-yl)oxy)-5,6,7,8-tetrahydroquinoline-2-carbonitrile], for which the pIC50 on LRRK2 WT was 5.00 to 6.00; at LRRK2 G2019S, more than 7.00.
